# Columns and labels:
# Assay in all cases: 3' UTR reporter interaction score (median-centred robust z-score of log2 firefly/Renilla activity); higher = less repression of the 3' UTR reporter
# Settings in all cases: HEK293T; 48 h
# [1] = tested on: MYCN
# How it was run: (§1)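 Using DharmaFECT Duo, HEK293T cells (10,000/well, 96-well plates) were co-transfected with 2.5 pmol miRNA mimic, 100 ng firefly luc2P reporter containing the gene's 3' UTR and 20 ng Renilla pRL-TK control, and dual-luciferase activity was read 48 h later. The interaction score is the log firefly/Renilla ratio as a per-plate robust z-score (median, median absolute deviation), median-centred per miRNA, averaged over at least two independent screens; lower, more negative values indicate interaction.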
# [2] = tested on: MYT1L
# How it was run: as §1
# [3] = tested on: FBXW7
# How it was run: as §1
# [4] = tested on: EZH2
# How it was run: as §1
# [5] = tested on: MYB
# How it was run: as §1
# [6] = tested on: BRCA2
# How it was run: as §1
# [7] = tested on: HRAS
# How it was run: as §1
# [8] = tested on: PHOX2B
# How it was run: as §1
# [9] = tested on: ZEB2
# How it was run: as §1
# [10] = tested on: RB1
# How it was run: as §1
# [11] = tested on: NOTCH1
# How it was run: as §1
# [12] = tested on: PHF6
# How it was run: as §1
# [13] = tested on: TP53
# How it was run: as §1
# [14] = tested on: MYC
# How it was run: as §1
Sequence,3' UTR reporter interaction score [1],3' UTR reporter interaction score [2],3' UTR reporter interaction score [3],3' UTR reporter interaction score [4],3' UTR reporter interaction score [5],3' UTR reporter interaction score [6],3' UTR reporter interaction score [7],3' UTR reporter interaction score [8],3' UTR reporter interaction score [9],3' UTR reporter interaction score [10],3' UTR reporter interaction score [11],3' UTR reporter interaction score [12],3' UTR reporter interaction score [13],3' UTR reporter interaction score [14]
UCACUCCUCUCCUCCCGUCUUCU,0.923,1.44,-1.25,-1.64,0.575,-0.727,-0.435,-0.219,1.61,0.27,1.17,0.199,-0.451,–
UCUCACACAGAAAUCGCACCCGUC,-1.33,-0.241,-0.236,–,0.485,1,-1.52,0.123,0.106,-0.308,0.283,0.199,-0.669,-3.89
UAGCAGCACAUAAUGGUUUGUG,-0.121,-2.1,-3.3,–,-1.32,-0.161,1.55,0.742,1.33,-0.091,0.0154,1,-0.405,1.03
AUGUAUAAAUGUAUACACAC,-0.0355,–,0.329,0.905,-0.578,0.174,0.0947,0.0154,-1.04,-0.33,-1.28,-0.348,1.38,-0.0623
UUUGUGACCUGGUCCACUAACC,0.167,-0.568,-0.879,0.358,0.254,-0.491,–,0,0.152,0.728,0.65,0.815,-1.6,-1.92
AGAUCAGAAGGUGAUUGUGGCU,-0.0131,–,1.15,0.782,-2.02,0.117,0.462,-0.105,-0.441,-1,0.74,1.45,0.622,-0.231
UACUCAGGAGAGUGGCAAUCACA,0.696,-0.715,-0.521,-0.403,1.48,0.435,-0.17,0.756,0.272,-0.0737,-0.379,-1.8,–,0.13
CUCCUGACUCCAGGUCCUGUGU,-0.0476,–,-0.332,-0.51,0.427,0.612,0.32,-0.0385,-1.51,0.546,0.232,-4.57,0.342,1.1
AUCACAUUGCCAGGGAUUACC,0.139,0.363,-0.221,0.0796,-0.174,-1.56,-0.747,0.2,1.1,0.534,-0.965,0.0907,–,0.209
GGCAAGAUGCUGGCAUAGCUG,0.322,-0.16,1.19,-0.113,0.765,–,0.647,1.14,1.14,0.334,-0.293,-1.44,-0.71,0.017
UAAUACUGCCUGGUAAUGAUGAC,-0.158,1.12,-0.751,0.31,-2.25,–,-0.0979,-1.14,-3.47,0.622,-0.616,2,-0.665,1.05
UAAGGCACCCUUCUGAGUAGA,-0.435,1.04,0.601,-2.69,–,0.5,0.999,1.39,0.807,-1.28,-0.104,-0.903,-0.0578,-0.593
UGAGGUAGGAGGUUGUAUAGU,-3.52,-0.34,0.127,-3.52,0.624,0.75,0.649,0.238,-0.156,–,-0.642,-0.232,0.0915,-2.75
GUGAAAUGUUUAGGACCACUAG,-0.394,0.987,0.238,-0.221,-0.192,-0.28,-0.276,0.216,0.105,-0.00504,-0.392,1.07,0.19,–
UUUCAAGCCAGGGGGCGUUUUUC,-0.0394,0.976,1.22,-0.378,0.555,-0.216,-0.232,-0.413,–,-0.19,-1.91,-0.209,1.02,0.49
AAUCGUACAGGGUCAUCCACUU,-0.121,-0.171,0.407,0.723,0.179,-0.12,0.0979,1.36,0.283,-0.619,0.0951,–,0.0793,0.0345
CAAAAACCACAGUUUCUUUUGC,0.186,-0.79,-0.0284,0.177,-1.54,–,-1.1,0.417,-0.847,0.189,-0.821,0.268,-0.323,0.0969
UGUAACAGCAACUCCAUGUGGA,0.331,-0.161,-1.43,-1.3,0.809,0.232,–,-2.2,0.401,-0.726,-0.0483,1.94,-0.515,-1.28
CAAAGUGCUUACAGUGCAGGUAGU,-0.306,-0.396,–,-0.848,-0.142,-0.125,0.135,0.665,1.15,0.713,0.897,-0.0772,0.459,0.444
CAGUGCAAUAGUAUUGUCAAAGC,0.282,-1.35,0.383,-0.946,-1.09,0.327,–,-0.134,-0.0807,1.9,1.2,1.54,-0.369,-0.162
